In patent US20100260691A1, “Aqueous compositions containing a hydrophobic material” (priority 2006, published 2010):
Blank lines part the entries; values can stand above or below the molecule they belong to.

Columns and labels:
[1] = Visual clarity of aqueous concentrate and dilutions; format: physicochemical; conditions: for appearance of dilutions with water: dilution ratios as stated in each example; for appearance / dissolution of the aqueous concentrate: undiluted composition as prepared
Source text: FIG. 2 summarizes a method that can be used for optimization. Once the components are identified, optimization may be performed by preparing several mixtures of the components in different ratios and observing the phase behavior. Plot the compositions producing clear systems for concentrate and dilutions and identify regions in the triangular composition space. For a fixed amount of the hydrophobic material or active ingredient, vary the ratios of the surfactant and polymer in water. Alternately, vary the concentration of the hydrophobic material or active ingredient, polymer and surfactant in different ratio and make up to 100% in water and plot the compositions providing clear systems for the concentrate and for dilutions.

[2] = cited from earlier work
[3] = Solubility / solubilization of Triclosan in water and SDS solutions; format: physicochemical; conditions: SDS alone, no PVP
Method: This concentrate was serially diluted at 3/10, 2.5/10, 2/10, 1.5/10, 1/10, 0.8/10, 0.6/10, 0.4/10 with water. […] Minimum amount of SDS required to solubilize 0.075%-0.09% Triclosan was ˜0.4-0.5% range SDS. This corresponds to about two-three times the CMC for SDS, which was determined to be about 0.17%.

[4] = Particle size by Dynamic Light Scattering; format: physicochemical; conditions: active in SDS/PVP K-30 aqueous systems and dilutions
Source text: The hydrophobic material is present in the composition as an emulsion or a dispersion. The particle size of the hydrophobic material in the composition typically falls within the range of from about 5 to 1000 nm, more particularly from about 5 to 500 nm, still more particularly from about 10 to 100 nm and in accordance with certain embodiments from about 10 to 30 nm. Particle size refers to average particle radius and can be determined using dynamic light scattering techniques and equipment known to those of skill in the art. The compositions in accordance with certain aspects of the invention are visually clear due primarily to the small particle size of the hydrophobic material. Optical clarity can be measured using a turbidimeter or nephelometer.

[5] = Critical micelle concentration by surface tension; format: physicochemical; conditions: in water
Source text: Suitable polymer is selected by first determining the surface tension concentration profile of the surfactant and evaluating the CMC. This is done by preparing standard solutions of the surfactant in water at different concentration and dilutions and measuring surface tension of the solutions and plotting the data as shown in FIG. 1. Surface tension may be measured using a typical Tensiometer [DuNuoy Tensiometer, Surface Tensiomat, Fisher with a platinum ring with a mean circumference of 6 cm, and a ring/wire radius ratio of 53.8. As an example: starting with 1% solution of a typical surfactant like SDS, serial dilutions are made by diluting appropriate amounts of the 1% stock solution and diluting to 0.5%, 0.2%, 0.1% and 0.05, 0.02, 0.01, 0.005, 0.002, by adding appropriate amounts of de-ionized water to a weighed quantity of the stock solution. FIG. 1 is a plot of concentration in moles per liter of the SDS and surface tension at 25° C.

- appearance of dilutions with water [1]: clear solutions
- appearance / dissolution of the aqueous concentrate [1]: clear solutions
Compound: CCOC(=O)c1ccc(O)cc1 [ethylparaben]

- appearance of dilutions with water [1]: clear solutions
- appearance / dissolution of the aqueous concentrate [1]: clear solutions
Compound: COC(=O)c1ccc(O)cc1 [methylparaben]

Compound: Oc1cc(Cl)ccc1Oc1ccc(Cl)cc1Cl [Triclosan]
- solubility in water [2]: 10 ppm
- Minimum amount of SDS required to solubilize 0.075%-0.09% Triclosan [3]: 0.4-0.5 % SDS
- Minimum amount of SDS to solubilize 0.3% Triclosan in water [3]: ~2 % SDS
- level of SDS required to solubilize 3% Triclosan [3]: 25%
- particle size (radius) [4]: 10-30 nm

- CMC [5]: about 0.17%
Compound: CCCCCCCCCCCCOS(=O)(=O)[O-].[Na+] [SDS, sodium dodecylsulfate]
